Results on one compound are retold here after ChEMBL document CHEMBL6083275, “Discovery and evaluation of HW161023 as a potent and orally active AAK1 inhibitor” (Bioorg Med Chem Lett, 2024).

Data set [1] in a line: Clearance in C57BL/6J mouse at 1 mg/kg, iv. In kind it is ADME, organism-based. Particulars: in vivo.
The nature of data set [2]: Apparent volume of distribution in C57BL/6J mouse at 1 mg/kg, iv. Particulars: in vivo, read-out: Vz. The format is ADME, organism-based.
A short description of data set [3]: AUC (0 to 24 hrs) in C57BL/6J mouse at 10 mg/kg, po. In kind it is ADME, organism-based. The note with it: in vivo.
A short description of data set [4]: Oral bioavailability in C57BL/6J mouse at 10 mg/kg. Particulars: in vivo. The format is ADME, organism-based.
Data set [5] is described as follows: Metabolic stability in human liver microsomes assessed as half-life. In kind it is ADME, Microsome. (In general: Microsomes from liver hold many membrane-bound enzymes, among them those of drug oxidation.)
The nature of data set [6]: Metabolic stability in rat liver microsomes assessed as half-life. The format is ADME, Microsome.
In data set [7] the target is Voltage-gated inwardly rectifying potassium channel KCNH2 (Homo sapiens, UniProt Q12809). Briefly: Inhibition of human ERG by patch clamp assay. In kind it is toxicity. A general note: In patch-clamp work, channel activity is measured electrically.
In a further data set the target is CYP2C9 (Homo sapiens, UniProt P11712). Briefly: Inhibition of CYP2C9 (unknown origin) at 10 uM relative to control. The format is ADME.
The next data set addresses CYP2D6 (Homo sapiens, UniProt P10635). Briefly: Inhibition of CYP2D6 (unknown origin) at 10 uM relative to control. In kind it is ADME.
Data set [8] deals with T1, CYP3A4 (Homo sapiens, UniProt P08684). As to the kind of experiment: Inhibition of CYP3A4 (unknown origin) using midazolam as substrate at 10 uM relative to control. The note with it: probe midazolam. In kind it is ADME.
Data set [9] addresses T1, CYP3A4. As to the kind of experiment: Inhibition of CYP3A4 (unknown origin) using testosterone as substrate at 10 uM relative to control. Particulars: probe testosterone. In kind it is ADME.
The nature of data set [10]: Half-life in rat at 1 mg/kg, iv. In kind it is ADME, organism-based. Particulars: in vivo.
Data set [11] in a line: AUC (0 to 24 hrs) in dog at 5 mg/kg, po. In kind it is ADME, organism-based, Canis lupus familiaris. The note with it: in vivo.
Data set [12] in a line: Oral bioavailability in dog at 5 mg/kg. The format is ADME, organism-based, Canis lupus familiaris. Particulars: in vivo.
A short description of data set [13]: Half-life in dog at 1 mg/kg, iv. The format is ADME, organism-based, Canis lupus familiaris. Particulars: in vivo.
Data set [14] can be described thus: Clearance in dog at 1 mg/kg, iv. The format is ADME, organism-based, Canis lupus familiaris. Particulars: in vivo.
In data set [15] the target is T2, Cyclin-G-associated kinase (Homo sapiens) (UniProt O14976).
T2 sequence (whole entry): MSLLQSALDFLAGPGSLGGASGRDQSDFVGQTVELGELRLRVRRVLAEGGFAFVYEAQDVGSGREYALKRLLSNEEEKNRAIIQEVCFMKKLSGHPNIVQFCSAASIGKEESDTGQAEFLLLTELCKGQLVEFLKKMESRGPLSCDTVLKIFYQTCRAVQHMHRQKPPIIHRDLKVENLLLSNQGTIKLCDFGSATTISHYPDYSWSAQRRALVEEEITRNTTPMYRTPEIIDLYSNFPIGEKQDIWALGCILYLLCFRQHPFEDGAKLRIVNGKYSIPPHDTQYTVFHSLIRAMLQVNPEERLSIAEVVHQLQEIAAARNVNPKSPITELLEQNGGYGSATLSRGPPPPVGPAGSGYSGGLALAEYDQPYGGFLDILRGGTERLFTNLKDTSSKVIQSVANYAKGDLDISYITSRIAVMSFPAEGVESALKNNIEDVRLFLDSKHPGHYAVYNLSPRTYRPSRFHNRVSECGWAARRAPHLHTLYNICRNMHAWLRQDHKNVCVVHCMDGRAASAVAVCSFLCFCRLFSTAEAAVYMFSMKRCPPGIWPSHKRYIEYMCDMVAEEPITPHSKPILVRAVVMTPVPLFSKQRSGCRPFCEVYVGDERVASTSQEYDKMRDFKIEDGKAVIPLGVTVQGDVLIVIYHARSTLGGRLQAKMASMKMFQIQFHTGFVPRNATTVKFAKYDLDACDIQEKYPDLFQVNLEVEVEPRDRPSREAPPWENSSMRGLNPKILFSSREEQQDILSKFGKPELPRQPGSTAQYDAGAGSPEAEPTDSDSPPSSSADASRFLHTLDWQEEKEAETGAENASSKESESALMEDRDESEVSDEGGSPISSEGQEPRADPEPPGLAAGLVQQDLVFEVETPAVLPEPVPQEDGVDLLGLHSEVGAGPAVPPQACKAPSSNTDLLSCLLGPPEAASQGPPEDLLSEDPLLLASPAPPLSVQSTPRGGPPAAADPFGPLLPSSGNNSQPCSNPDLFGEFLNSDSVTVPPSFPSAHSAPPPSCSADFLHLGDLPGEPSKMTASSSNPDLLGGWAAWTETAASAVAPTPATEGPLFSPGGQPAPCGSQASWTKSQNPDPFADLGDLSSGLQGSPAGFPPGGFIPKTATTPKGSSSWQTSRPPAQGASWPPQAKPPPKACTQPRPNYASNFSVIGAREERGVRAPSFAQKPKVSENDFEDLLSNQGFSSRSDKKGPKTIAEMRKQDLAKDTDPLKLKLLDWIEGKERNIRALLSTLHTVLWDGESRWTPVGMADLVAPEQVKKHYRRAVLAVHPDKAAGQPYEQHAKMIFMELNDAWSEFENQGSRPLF
As to the kind of experiment: Inhibition of wildtype GAK (unknown origin) at 1 uM relative to control.

Data set [16] has as its target MAP kinase-interacting serine/threonine-protein kinase 1 (Homo sapiens) (UniProt Q9BUB5). Briefly: Inhibition of wildtype MNK1 (unknown origin) at 1 uM relative to control.
The target of data set [17] is T3, cGMP-dependent protein kinase 2 (Homo sapiens) (UniProt Q13237).
T3 sequence (whole entry): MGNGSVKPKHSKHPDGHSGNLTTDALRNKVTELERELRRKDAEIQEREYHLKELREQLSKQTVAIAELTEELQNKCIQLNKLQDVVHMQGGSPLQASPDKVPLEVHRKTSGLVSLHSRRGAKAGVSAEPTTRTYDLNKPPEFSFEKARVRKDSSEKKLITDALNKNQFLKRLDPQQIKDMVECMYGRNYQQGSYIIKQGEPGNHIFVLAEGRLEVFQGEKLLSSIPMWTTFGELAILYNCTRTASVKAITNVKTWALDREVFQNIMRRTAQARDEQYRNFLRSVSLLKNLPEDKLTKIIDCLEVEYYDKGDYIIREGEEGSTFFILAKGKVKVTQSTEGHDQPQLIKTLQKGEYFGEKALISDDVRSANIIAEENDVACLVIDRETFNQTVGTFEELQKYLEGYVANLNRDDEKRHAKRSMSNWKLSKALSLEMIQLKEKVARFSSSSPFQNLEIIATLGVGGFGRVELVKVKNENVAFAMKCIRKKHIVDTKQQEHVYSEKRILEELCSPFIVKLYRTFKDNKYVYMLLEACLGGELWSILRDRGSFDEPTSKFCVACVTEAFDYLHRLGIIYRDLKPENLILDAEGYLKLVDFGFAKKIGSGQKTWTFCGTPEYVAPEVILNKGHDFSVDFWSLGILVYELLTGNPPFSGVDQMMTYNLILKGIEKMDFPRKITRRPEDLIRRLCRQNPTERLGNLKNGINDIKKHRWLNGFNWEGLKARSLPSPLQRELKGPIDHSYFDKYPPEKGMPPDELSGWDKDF
As to the kind of experiment: Inhibition of wildtype CGK2 (unknown origin) at 1 uM relative to control.

Data set [18] has as its target Citron Rho-interacting kinase (Homo sapiens) (UniProt O14578). Briefly: Inhibition of wildtype CRIK (unknown origin) at 1 uM relative to control.

The structures appear in SMILES notation.

T1 sequence (P08684 whole entry): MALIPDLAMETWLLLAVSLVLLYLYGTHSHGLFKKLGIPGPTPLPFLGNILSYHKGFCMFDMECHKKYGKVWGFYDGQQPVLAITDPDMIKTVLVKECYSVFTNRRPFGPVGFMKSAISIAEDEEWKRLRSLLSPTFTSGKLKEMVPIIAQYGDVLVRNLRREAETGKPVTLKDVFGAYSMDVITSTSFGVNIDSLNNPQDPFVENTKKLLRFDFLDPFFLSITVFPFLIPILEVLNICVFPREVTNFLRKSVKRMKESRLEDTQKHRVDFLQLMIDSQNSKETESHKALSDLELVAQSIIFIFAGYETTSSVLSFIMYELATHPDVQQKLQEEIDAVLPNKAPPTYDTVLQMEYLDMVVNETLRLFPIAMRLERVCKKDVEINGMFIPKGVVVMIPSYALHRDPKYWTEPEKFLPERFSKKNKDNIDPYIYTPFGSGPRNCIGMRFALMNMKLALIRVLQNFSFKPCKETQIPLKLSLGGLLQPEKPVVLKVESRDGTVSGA
Chain of MAP kinase-interacting serine/threonine-protein kinase 1 (Homo sapiens) (Q9BUB5 whole entry, looked up): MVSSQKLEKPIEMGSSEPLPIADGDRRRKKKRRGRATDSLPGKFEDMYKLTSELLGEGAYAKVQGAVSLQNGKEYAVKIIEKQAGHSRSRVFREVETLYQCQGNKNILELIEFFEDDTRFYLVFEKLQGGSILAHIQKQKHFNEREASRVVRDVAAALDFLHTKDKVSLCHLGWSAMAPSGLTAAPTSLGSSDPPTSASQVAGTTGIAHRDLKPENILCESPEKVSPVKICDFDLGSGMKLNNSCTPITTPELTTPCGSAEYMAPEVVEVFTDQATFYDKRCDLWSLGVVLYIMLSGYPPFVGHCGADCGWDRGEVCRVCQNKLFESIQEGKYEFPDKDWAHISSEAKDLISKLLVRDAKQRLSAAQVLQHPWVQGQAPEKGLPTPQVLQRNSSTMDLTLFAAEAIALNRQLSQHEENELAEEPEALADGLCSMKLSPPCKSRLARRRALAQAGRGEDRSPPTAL
Chain of Voltage-gated inwardly rectifying potassium channel KCNH2 (Q12809 whole entry): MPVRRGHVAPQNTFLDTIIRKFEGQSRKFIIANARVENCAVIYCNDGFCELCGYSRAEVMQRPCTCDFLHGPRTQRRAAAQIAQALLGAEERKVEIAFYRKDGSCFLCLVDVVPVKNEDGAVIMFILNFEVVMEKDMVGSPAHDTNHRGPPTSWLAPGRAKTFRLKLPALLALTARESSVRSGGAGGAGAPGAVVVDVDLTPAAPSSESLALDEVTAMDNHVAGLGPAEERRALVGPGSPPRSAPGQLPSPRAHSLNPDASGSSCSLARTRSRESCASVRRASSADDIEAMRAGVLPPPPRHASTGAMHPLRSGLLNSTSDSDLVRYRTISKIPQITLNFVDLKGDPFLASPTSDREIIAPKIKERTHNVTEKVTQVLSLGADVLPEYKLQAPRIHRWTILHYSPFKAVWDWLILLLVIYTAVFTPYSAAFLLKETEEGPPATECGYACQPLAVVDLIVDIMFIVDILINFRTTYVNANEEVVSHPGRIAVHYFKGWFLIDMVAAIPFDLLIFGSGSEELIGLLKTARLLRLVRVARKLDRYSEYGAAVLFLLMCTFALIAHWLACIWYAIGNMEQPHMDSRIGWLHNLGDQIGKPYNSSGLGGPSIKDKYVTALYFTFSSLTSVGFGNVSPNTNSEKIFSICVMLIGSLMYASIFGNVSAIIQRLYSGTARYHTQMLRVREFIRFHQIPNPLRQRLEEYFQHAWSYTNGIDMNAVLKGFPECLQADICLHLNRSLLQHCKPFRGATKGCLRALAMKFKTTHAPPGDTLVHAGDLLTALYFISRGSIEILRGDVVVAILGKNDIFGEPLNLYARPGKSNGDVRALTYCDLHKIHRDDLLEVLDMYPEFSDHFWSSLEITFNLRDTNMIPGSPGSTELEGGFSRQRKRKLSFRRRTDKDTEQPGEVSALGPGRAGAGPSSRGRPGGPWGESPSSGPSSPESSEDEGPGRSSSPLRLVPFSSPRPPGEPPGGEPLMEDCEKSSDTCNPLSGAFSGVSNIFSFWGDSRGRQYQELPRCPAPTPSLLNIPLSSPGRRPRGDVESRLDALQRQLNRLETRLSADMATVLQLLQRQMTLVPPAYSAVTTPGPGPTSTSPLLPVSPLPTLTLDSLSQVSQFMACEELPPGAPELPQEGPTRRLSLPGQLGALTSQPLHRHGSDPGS
Chain of CYP2C9 (P11712 whole entry): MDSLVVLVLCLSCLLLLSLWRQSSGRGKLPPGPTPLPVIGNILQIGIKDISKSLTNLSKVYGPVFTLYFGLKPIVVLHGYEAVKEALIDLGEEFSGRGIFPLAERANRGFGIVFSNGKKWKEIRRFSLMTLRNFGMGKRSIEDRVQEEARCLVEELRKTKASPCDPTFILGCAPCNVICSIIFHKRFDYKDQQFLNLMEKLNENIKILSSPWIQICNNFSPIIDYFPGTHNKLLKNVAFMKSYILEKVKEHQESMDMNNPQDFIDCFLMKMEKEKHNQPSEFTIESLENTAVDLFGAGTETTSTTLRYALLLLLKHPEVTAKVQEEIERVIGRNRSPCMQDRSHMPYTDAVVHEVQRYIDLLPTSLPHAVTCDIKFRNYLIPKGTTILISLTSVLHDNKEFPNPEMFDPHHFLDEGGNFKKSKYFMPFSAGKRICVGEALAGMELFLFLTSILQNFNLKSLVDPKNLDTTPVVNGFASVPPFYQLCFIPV
Chain of CYP2D6 (P10635 whole entry): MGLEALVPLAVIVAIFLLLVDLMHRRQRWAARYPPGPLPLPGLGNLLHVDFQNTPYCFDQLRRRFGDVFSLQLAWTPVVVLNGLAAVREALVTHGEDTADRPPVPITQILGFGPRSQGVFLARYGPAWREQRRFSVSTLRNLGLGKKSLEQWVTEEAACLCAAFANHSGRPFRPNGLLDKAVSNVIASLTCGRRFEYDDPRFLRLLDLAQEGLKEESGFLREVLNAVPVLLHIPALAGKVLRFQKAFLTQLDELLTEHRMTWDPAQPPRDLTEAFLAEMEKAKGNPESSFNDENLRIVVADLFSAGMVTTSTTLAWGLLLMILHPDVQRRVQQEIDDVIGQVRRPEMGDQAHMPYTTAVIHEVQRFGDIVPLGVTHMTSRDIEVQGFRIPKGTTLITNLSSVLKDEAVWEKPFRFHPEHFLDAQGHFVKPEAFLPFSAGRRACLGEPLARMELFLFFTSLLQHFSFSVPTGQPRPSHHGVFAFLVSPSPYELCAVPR

Broadly, the clearance is the rate of elimination divided by the concentration. A word on the AUC(0-t): it is exposure summed from dosing to a finite time, without extrapolation to infinity. High values mean high exposure, low ones low exposure. The half-life is the time needed for the level to fall by half in the phase considered. What is called IC50 is the concentration that inhibits the measured activity by half. A high value points to weaker potency in that assay. Usually inhibition stands for how much of the control response was suppressed. Read a low inhibition as a response near the control. `CC(C)C[C@](C)(N)COc1ccc(-c2ccnc(C(F)F)c2)c2nccn12`: the clearance was 11.7 mL/min/kg in data set [1] and 48.3 mL/min/kg in data set [14]. For the same compound, the Vd in data set [2] amounted to 18 L/kg. For the same compound, the results for the AUC(0-t) in data set [3] and in data set [11] were 9150 ng·h/mL and 2270 ng·h/mL, respectively. The bioavailability was 103% in data set [4] and 140% in data set [12]. Besides, the half-life in [5] is 1.47 h; in data set [6], 0.583 h; in data set [10], 10.3 h; in [13], 3.3 h. This compound gave an IC50 in [7] of 11.9 µM. For the same compound, the inhibition at 10 µM at CYP2C9, on CYP2D6, against CYP3A4 [8] and on CYP3A4 [9] was less than 20% in each case. Also, the inhibition in [15] is 97%; in [16] it was 91%; in [17], 65%; in data set [18], 60%.
